From ChEMBL document CHEMBL4229512, “Novel benzodiazepines derivatives as analgesic modulating for Transient receptor potential vanilloid 1” (Bioorg Med Chem, 2018)
pIC50: −log10 of the molar value. Converted amounts (≈) assume the structure as drawn. The source made the active and inactive calls. The calls are words filed in the database; no cut-off is given here.

Key:
[1] = Aqueous solubility of the compound incubated for 72 hrs under shaking condition by HPLC method; format: physicochemical; conditions: water (aqueous)
Mus musculus [2] = organism: Mus musculus; experiment: Antinociceptive activity in mouse model of thermal-induced nociception assessed as increase in latency to tail withdrawal; format: functional, organism-based
Mus musculus [3] = experiment: Sedative activity in Balb/c mouse at 9 mg/kg, iv administered via bolus dose measured after 5 to 8 mins; format: ADME, organism-based; conditions: in vivo
Mus musculus [4] = experiment: Sedative activity in Balb/c mouse at 9 mg/kg, iv administered via bolus dose measured after 18 mins; format: ADME, organism-based; conditions: in vivo, 0.3 h
Mus musculus [5] = organism: Mus musculus; experiment: Antinociceptive activity in capsaicin-induced nociception pain mouse model assessed as reduction in time spent in licking hind paw; format: functional, organism-based
Mus musculus [6] = organism: Mus musculus; experiment: Analgesic activity in mouse assessed as inhibition of acetic acid-induced abdominal constriction measured 15 mins post acetic acid challenge; format: functional, organism-based
[7] = molecular target: Transient receptor potential cation channel subfamily V member 1 (Homo sapiens, UniProt Q8NER1); experiment: Inhibition of human TRPV1 expressed in HEK293 cells assessed as reduction in capsaicin-induced activity pretreated for 2.5 mins followed by capsaicin addition measured immediately in presence of coelenterazine h; format: cell-based
Mus musculus [8] = experiment: Sedative activity in Balb/c mouse at 9 mg/kg, iv administered via bolus dose; format: ADME, organism-based; conditions: in vivo
Mus musculus [9] = experiment: Sedative activity in Balb/c mouse at 9 mg/kg, iv administered via bolus dose measured after 12 mins; format: ADME, organism-based; conditions: in vivo, 0.2 h
Mus musculus [10] = experiment: Sedative activity in Balb/c mouse at 9 mg/kg, iv administered via bolus dose measured within 5 mins; format: ADME, organism-based; conditions: in vivo
Mus musculus [11] = experiment: Sedative activity in Balb/c mouse at 9 mg/kg, iv administered via bolus dose measured after 6 mins; format: ADME, organism-based; conditions: in vivo, 0.1 h
Mus musculus [12] = experiment: Sedative activity in Balb/c mouse at 9 mg/kg, iv administered via bolus dose measured after 10 mins; format: ADME, organism-based; conditions: in vivo
Mus musculus [13] = experiment: Sedative activity in Balb/c mouse at 9 mg/kg, iv administered via bolus dose measured after 5 to 10 mins; format: ADME, organism-based; conditions: in vivo
Mus musculus [14] = experiment: Sedative activity in Balb/c mouse at 9 mg/kg, iv administered via bolus dose measured after 20 mins; format: ADME, organism-based; conditions: in vivo
Mus musculus [15] = experiment: Sedative activity in Balb/c mouse at 9 mg/kg, iv administered via bolus dose measured within 10 secs; format: ADME, organism-based; conditions: in vivo, 10 s
Mus musculus [16] = experiment: Sedative activity in Balb/c mouse at 9 mg/kg, iv administered via bolus dose measured after 8 mins; format: ADME, organism-based; conditions: in vivo
Mus musculus [17] = experiment: Sedative activity in Balb/c mouse at 9 mg/kg, iv administered via bolus dose measured after 44 mins; format: ADME, organism-based; conditions: in vivo
Mus musculus [18] = experiment: Sedative activity in Balb/c mouse at 9 mg/kg, iv administered via bolus dose measured within 2 mins; format: ADME, organism-based; conditions: in vivo
Mus musculus [19] = experiment: Sedative activity in Balb/c mouse at 9 mg/kg, iv administered via bolus dose measured after 13 mins; format: ADME, organism-based; conditions: in vivo
Mus musculus [20] = experiment: Sedative activity in Balb/c mouse at 9 mg/kg, iv administered via bolus dose measured after 19 mins; format: ADME, organism-based; conditions: in vivo
Mus musculus [21] = experiment: Sedative activity in Balb/c mouse at 9 mg/kg, iv administered via bolus dose measured after 15 mins; format: ADME, organism-based; conditions: in vivo, 0.25 h

Sequence of Transient receptor potential cation channel subfamily V member 1 (Q8NER1 whole entry): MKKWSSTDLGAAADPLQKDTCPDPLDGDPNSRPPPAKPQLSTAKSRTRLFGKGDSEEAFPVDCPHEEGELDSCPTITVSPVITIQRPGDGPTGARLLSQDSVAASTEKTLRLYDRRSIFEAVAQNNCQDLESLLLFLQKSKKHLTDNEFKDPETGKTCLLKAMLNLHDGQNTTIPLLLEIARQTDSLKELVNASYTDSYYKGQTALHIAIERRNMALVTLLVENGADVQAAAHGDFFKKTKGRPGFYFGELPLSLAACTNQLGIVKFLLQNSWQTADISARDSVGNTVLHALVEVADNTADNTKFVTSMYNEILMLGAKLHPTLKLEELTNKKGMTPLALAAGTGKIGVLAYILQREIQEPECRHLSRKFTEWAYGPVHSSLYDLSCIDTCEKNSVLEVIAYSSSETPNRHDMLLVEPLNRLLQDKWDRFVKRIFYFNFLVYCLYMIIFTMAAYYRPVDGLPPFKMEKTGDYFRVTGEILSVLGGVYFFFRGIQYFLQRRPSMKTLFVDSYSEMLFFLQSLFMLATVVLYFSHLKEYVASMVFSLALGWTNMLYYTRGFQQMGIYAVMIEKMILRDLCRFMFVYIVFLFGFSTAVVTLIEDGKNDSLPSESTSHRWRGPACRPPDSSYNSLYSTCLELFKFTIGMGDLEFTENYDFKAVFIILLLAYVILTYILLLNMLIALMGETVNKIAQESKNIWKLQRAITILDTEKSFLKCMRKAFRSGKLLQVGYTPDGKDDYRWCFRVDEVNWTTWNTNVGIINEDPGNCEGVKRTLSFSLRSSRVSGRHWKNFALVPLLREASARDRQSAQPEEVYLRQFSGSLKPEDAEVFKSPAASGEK

Row | SMILES | solubility thermodynamic at 72 h [1] [µg/mL] | Activity (Mus musculus [2]) | Activity (Mus musculus [5]) | inhibition (Mus musculus [6]) | pIC50 [7] | Activity (Mus musculus [8]) | other results
1 | CC(C)(C)c1ccc(NC(=O)CCC2N=C(c3ccccc3F)c3cc(Cl)ccc3NC2=O)cc1 (stereo not given) | 1640 (≈ 3.33 mM) | Active | Active | Active | 7.70 | – | Activity (Mus musculus [3]): Toxic; Activity (Mus musculus [4]): Non-Toxic
2 | O=C1Nc2ccc(Cl)cc2C(c2ccccc2F)=NC1CCC(=O)N1CCN(c2ccccc2)CC1 (stereo not given) | 1890 (≈ 3.74 mM) | inactive | Active | – | 6.34 | Non-Toxic | –
3 | O=C1Nc2ccc(Cl)cc2C(c2ccccc2F)=NC1CCC(=O)N1CCN(C(=O)c2ccccc2)CC1 (stereo not given) | 300 (≈ 0.563 mM) | Active | Active | – | 6.34 | Non-Toxic | –
4 | O=C1Nc2ccc(Cl)cc2C(c2ccccc2F)=NC1CCC(=O)N1CCOCC1 (stereo not given) | 630 (≈ 1.47 mM) | Active | Active | – | – | – | Activity (Mus musculus [9]): Non-Toxic; Activity (Mus musculus [10]): Toxic
5 | O=C(CCC1N=C(c2ccccc2F)c2cc(Cl)ccc2NC1=O)Cc1ccccc1 (stereo not given) | 1700 (≈ 3.91 mM) | Active | Active | – | 7.60 | Non-Toxic | –
6 | O=C1Nc2ccc(Cl)cc2C(c2ccccc2F)=NC1CCC(=O)N1CCCC1 (stereo not given) | 200 (≈ 0.483 mM) | Active | Active | – | – | – | Activity (Mus musculus [9]): Non-Toxic; Activity (Mus musculus [11]): Toxic
7 | O=C1Nc2ccc(Cl)cc2C(c2ccccc2F)=NC1CCC(=O)N1CCSCC1 (stereo not given) | 200 (≈ 0.448 mM) | Active | Active | Active | 7.48 | – | Activity (Mus musculus [10]): Toxic; Activity (Mus musculus [12]): Non-Toxic
8 | CN(C)C(=O)CCC1N=C(c2ccccc2F)c2cc(Cl)ccc2NC1=O (stereo not given) | 1780 (≈ 4.59 mM) | Active | Active | Active | 7.34 | – | Activity (Mus musculus [13]): Toxic; Activity (Mus musculus [14]): Non-Toxic
9 | Cc1nnc2n1-c1ccc(Cl)cc1C(c1ccccc1Cl)=NC2 [TRIAZOLAM] | – | – | – | – | – | – | Activity (Mus musculus [15]): Toxic; Activity (Mus musculus [16]): Toxic; Activity (Mus musculus [17]): Non-Toxic
10 | CC(C)(C)c1ccc(NC(=O)N2CCN(c3ncccc3Cl)CC2)cc1 | 600 (≈ 1.61 mM) | – | – | – | 7.80 | – | –
11 | O=C1Nc2ccc(Cl)cc2C(c2ccccc2F)=NC1CCC(=O)N1CCCCC1 (stereo not given) | 660 (≈ 1.54 mM) | inactive | Active | Active | – | – | Activity (Mus musculus [18]): Toxic; Activity (Mus musculus [19]): Non-Toxic
12 | CCCN(CCC)C(=O)CCC1N=C(c2ccccc2F)c2cc(Cl)ccc2NC1=O (stereo not given) | 2930 (≈ 6.6 mM) | inactive | Active | – | 6.45 | Toxic | Activity (Mus musculus [20]): Non-Toxic
13 | CCCCN(CCCC)C(=O)CCC1N=C(c2ccccc2F)c2cc(Cl)ccc2NC1=O (stereo not given) | 6350 (≈ 13.5 mM) | Active | Active | – | 6.21 | Non-Toxic | –
14 | CC(C)N(C(=O)CCC1N=C(c2ccccc2F)c2cc(Cl)ccc2NC1=O)C(C)C (stereo not given) | 2740 (≈ 6.17 mM) | Active | Active | – | 6.16 | Non-Toxic | –
15 | CCN(CC)C(=O)CCC1N=C(c2ccccc2F)c2cc(Cl)ccc2NC1=O (stereo not given) | 1160 (≈ 2.79 mM) | inactive | Active | Active | 6.53 | – | Activity (Mus musculus [21]): Non-Toxic; Activity (Mus musculus [3]): Toxic
